According to ChEMBL document CHEMBL5236605, “Design and synthesis of dual cathepsin L and S inhibitors and antimetastatic activity evaluation in pancreatic cancer cells” (Bioorg Med Chem Lett, 2023):
Calls of active or inactive are those of the source. The calls are words filed in the database; no cut-off is given here.

Experiments:
Procathepsin L [1] = target: T1, Procathepsin L (Homo sapiens, UniProt P07711); assay: Inhibition of human cathepsin L
Target sequence in this assay (P07711 whole entry): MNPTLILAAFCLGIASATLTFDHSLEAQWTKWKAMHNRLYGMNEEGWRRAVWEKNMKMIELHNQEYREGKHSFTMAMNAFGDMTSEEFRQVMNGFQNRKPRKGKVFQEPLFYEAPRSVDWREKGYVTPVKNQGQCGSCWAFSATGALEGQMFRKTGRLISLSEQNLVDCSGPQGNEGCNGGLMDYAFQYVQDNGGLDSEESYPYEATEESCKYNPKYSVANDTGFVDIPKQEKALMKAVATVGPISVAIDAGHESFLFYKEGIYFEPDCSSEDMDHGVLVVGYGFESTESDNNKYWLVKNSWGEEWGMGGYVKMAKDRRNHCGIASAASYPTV

Cathepsin K = target: T2, Cathepsin K (Homo sapiens, UniProt P43235); assay: Inhibition of human cathepsin K
T2 sequence (P43235 whole entry): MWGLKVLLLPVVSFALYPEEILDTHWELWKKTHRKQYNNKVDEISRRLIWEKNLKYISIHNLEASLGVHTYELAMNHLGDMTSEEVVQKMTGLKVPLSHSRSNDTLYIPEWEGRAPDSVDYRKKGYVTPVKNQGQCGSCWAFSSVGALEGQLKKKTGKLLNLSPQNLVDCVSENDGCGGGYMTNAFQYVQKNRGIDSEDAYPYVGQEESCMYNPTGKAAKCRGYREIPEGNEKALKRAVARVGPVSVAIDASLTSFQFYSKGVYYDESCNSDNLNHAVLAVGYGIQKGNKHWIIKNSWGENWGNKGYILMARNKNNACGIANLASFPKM

Cathepsin S [2] = target: T3, Cathepsin S (Homo sapiens, UniProt P25774); assay: Inhibition of human cathepsin S
Target sequence in this assay (P25774 whole entry): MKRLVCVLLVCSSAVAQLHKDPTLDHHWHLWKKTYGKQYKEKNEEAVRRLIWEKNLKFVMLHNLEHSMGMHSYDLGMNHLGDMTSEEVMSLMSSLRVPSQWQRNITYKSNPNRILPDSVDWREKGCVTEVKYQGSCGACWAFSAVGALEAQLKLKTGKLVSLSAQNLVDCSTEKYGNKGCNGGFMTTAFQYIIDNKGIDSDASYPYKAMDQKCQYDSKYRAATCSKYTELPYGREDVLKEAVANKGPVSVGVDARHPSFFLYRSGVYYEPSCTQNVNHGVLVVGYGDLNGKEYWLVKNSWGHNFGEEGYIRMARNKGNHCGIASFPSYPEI

Cathepsin B = Cathepsin B (Homo sapiens, UniProt P07858); assay: Inhibition of human cathepsin B
Cathepsin S [3] = target: T3, Cathepsin S; assay: Inhibition of cathepsin S activity in human BXPC-3 cells at 6.25 to 25 uM incubated for 48 hrs by fluorescence-based assay; format: cell-based; conditions: dose 6.25-25 µM
Target sequence in this assay (P25774 115-331 limits assumed): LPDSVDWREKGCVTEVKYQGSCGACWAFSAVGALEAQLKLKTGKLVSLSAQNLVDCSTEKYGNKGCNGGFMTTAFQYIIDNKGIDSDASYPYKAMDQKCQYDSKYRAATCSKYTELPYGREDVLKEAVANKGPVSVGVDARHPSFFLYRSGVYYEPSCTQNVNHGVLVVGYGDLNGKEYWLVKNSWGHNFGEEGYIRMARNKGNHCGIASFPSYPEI

Cathepsin S [4] = target: T3, Cathepsin S; assay: Inhibition of cathepsin S activity in human PANC-1 cells at 6.25 to 25 uM incubated for 48 hrs by fluorescence-based assay; format: cell-based; conditions: dose 6.25-25 µM
Target sequence in this assay (P25774 115-331 limits assumed): as above

PANC-1 [5] = assay: Antimetastatic activity in human PANC-1 cells assessed as reduction in cell migration at 6.25 to 25 uM incubated for 48 hrs by wound healing assay; format: functional, cell-based; conditions: dose 6.25-25 µM
Procathepsin L [6] = target: T1, Procathepsin L; assay: Inhibition of cathepsin L activity in human PANC-1 cells at 6.25 to 25 uM incubated for 48 hrs by fluorescence-based assay; format: cell-based; conditions: dose 6.25-25 µM
Target sequence in this assay (P07711 114-333 limits assumed): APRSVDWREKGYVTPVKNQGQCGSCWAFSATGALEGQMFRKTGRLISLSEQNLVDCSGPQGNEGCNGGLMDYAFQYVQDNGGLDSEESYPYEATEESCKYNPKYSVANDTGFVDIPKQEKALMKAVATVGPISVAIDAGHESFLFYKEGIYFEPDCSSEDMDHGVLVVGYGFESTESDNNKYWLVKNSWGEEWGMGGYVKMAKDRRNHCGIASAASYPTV

Procathepsin L [7] = target: T1, Procathepsin L; assay: Inhibition of cathepsin L activity in human BXPC-3 cells at 6.25 to 25 uM incubated for 48 hrs by fluorescence-based assay; format: cell-based; conditions: dose 6.25-25 µM
Target sequence in this assay (P07711 114-333 limits assumed): as above

BXPC-3 [8] = assay: Antiproliferative activity against human BxPC-3 cells assessed as reduction of cell viability at <25 uM by MTT assay; format: functional
PANC-1 [9] = assay: Antiproliferative activity against human PANC-1 cells assessed as reduction of cell viability at <25 uM by MTT assay; format: functional
BXPC-3 [10] = assay: Antimetastatic activity in human BXPC-3 cells assessed as reduction in cell migration at 6.25 to 25 uM incubated for 48 hrs by wound healing assay; format: functional, cell-based; conditions: dose 6.25-25 µM
BXPC-3 [11] = assay: Antiproliferative activity against human BxPC-3 cells assessed as effect on cathepsin L mRNA expression level at 6.25 to 25 uM incubated for 48 hrs by RT-PCR analysis; format: functional, cell-based; conditions: dose 6.25-25 µM
PANC-1 [12] = assay: Antiproliferative activity against human PANC-1 cells assessed as effect on cathepsin L mRNA expression level at 6.25 to 25 uM incubated for 48 hrs by RT-PCR analysis; format: functional, cell-based; conditions: dose 6.25-25 µM
PANC-1 [13] = assay: Anti-invasive activity in human PANC-1 cells assessed as reduction in cell invasion at 6.25 to 25 uM incubated for 24 hrs by crystal violet staining based transwell migration assay; format: functional; conditions: dose 6.25-25 µM
BXPC-3 [14] = assay: Anti-invasive activity in human BXPC-3 cells assessed as reduction in cell invasion at 6.25 to 25 uM incubated for 24 hrs by crystal violet staining based transwell migration assay; format: functional; conditions: dose 6.25-25 µM

| Compound | IC50 (Procathepsin L [1]) [µM] | IC50 (Cathepsin K) [µM] | IC50 (Cathepsin S [2]) [µM] | IC50 (Cathepsin B) [µM] | also measured |
| --- | --- | --- | --- | --- | --- |
| O=C(OC[C@@H](Cc1ccccc1)NS(=O)(=O)c1ccc(Br)cc1)[C@@H](Cc1ccccc1)NS(=O)(=O)c1ccccc1 | 6.03 | > 100 | 5.02 | > 100 |  |
| N#Cc1ccccc1N1CCN(C[C@@H](O)COC[C@H](Cc2ccccc2)NS(=O)(=O)c2ccc(Br)cc2)CC1 | 5.47 | > 100 | 5.46 | > 100 |  |
| N#Cc1ccccc1N1CCN(C[C@@H](O)COC[C@H](Cc2ccccc2)NS(=O)(=O)c2ccc(C(F)(F)F)cc2)CC1 | 45.9 | > 100 | 29.2 | > 100 |  |
| COc1cccc(/C=C/C(=O)NC[C@@H](Cc2ccccc2)NS(=O)(=O)c2ccc(C(F)(F)F)cc2)c1 | 51.7 | > 100 | 64.5 | > 100 |  |
| N#Cc1ccccc1N1CCN(C[C@H](O)COC[C@H](Cc2ccccc2)NS(=O)(=O)c2ccc(C(F)(F)F)cc2)CC1 | 41.1 | > 100 | 30.7 | > 100 |  |
| N#Cc1ccccc1N1CCN(C[C@H](O)COC[C@@H](Cc2ccccc2)NS(=O)(=O)c2ccc(Br)cc2)CC1 | 7.5 | > 100 | 4.38 | > 100 |  |
| COc1cccc(/C=C/C(=O)NC[C@H](Cc2ccccc2)NS(=O)(=O)c2ccc(C(F)(F)F)cc2)c1 | > 100 | > 100 | > 100 | > 100 |  |
| N#Cc1ccccc1N1CCN(C[C@H](O)COC[C@@H](Cc2ccccc2)NC(=O)C2CCN(C(=O)OCc3ccccc3)CC2)CC1 | > 100 | > 100 | > 100 | > 100 |  |
| N#Cc1ccccc1N1CCN(C[C@@H](O)COC[C@H](Cc2ccccc2)NC(=O)C2CCN(C(=O)OCc3ccccc3)CC2)CC1 | 19.5 | > 100 | 22.7 | > 100 |  |
| N#Cc1ccccc1N1CCN(C[C@@H](O)COC[C@@H](Cc2ccccc2)NS(=O)(=O)c2ccc(Br)cc2)CC1 | 4.1 | > 100 | 1.79 | > 100 | inhibition (Cathepsin S [3]): Dose-Dependent Effect; inhibition (Cathepsin S [4]): Dose-Dependent Effect; Activity (PANC-1 [5]): Dose-Dependent Effect; inhibition (Procathepsin L [6]): Dose-Dependent Effect; inhibition (Procathepsin L [7]): Dose-Dependent Effect; Activity (BXPC-3 [8]): 100%; Activity (PANC-1 [9]): 100%; Activity (BXPC-3 [10]): Dose-Dependent Effect; Activity (BXPC-3 [11]): inactive; Activity (PANC-1 [12]): inactive; Activity (PANC-1 [13]): Dose-Dependent Effect; Activity (BXPC-3 [14]): Dose-Dependent Effect |
| N#Cc1ccccc1N1CCN(C[C@H](O)COC[C@@H](Cc2ccccc2)NC(=O)c2ccncc2)CC1 | 46.2 | > 100 | 23.1 | > 100 |  |
| N#Cc1ccccc1N1CCN(C[C@@H](O)COC[C@H](Cc2ccccc2)NC(=O)c2ccncc2)CC1 | 18.6 | > 100 | 28.8 | > 100 |  |
| N#Cc1ccccc1N1CCN(C[C@H](O)COC[C@H](Cc2ccccc2)NC(=O)c2ccncc2)CC1 | 9.37 | > 100 | 16.1 | > 100 |  |
| N#Cc1ccccc1N1CCN(C[C@H](O)COC[C@@H](Cc2ccccc2)NS(=O)(=O)c2ccc(C(F)(F)F)cc2)CC1 | 40.7 | > 100 | 40.4 | > 100 |  |
| COc1ccc(/C=C/C(=O)NC[C@H](Cc2ccccc2)NS(=O)(=O)c2ccc(C(F)(F)F)cc2)cc1OC | > 100 | > 100 | > 100 | > 100 |  |
| COc1ccc(/C=C/C(=O)NC[C@H](Cc2ccccc2)NS(=O)(=O)c2ccc(Br)cc2)cc1OC | > 100 | > 100 | > 100 | > 100 |  |
| COc1ccc(/C=C/C(=O)NC[C@@H](Cc2ccccc2)NS(=O)(=O)c2ccc(Br)cc2)cc1OC | > 100 | > 100 | > 100 | > 100 |  |
| N#Cc1ccccc1N1CCN(C[C@H](O)COC[C@H](Cc2ccccc2)NS(=O)(=O)c2ccc(Br)cc2)CC1 | 8.53 | > 100 | 7.72 | > 100 |  |
| COc1cccc(/C=C/C(=O)NC[C@@H](Cc2ccccc2)NS(=O)(=O)c2ccc(Br)cc2)c1 | 23.9 | > 100 | 41 | > 100 |  |
| N#Cc1ccccc1N1CCN(C[C@@H](O)COC[C@@H](Cc2ccccc2)NS(=O)(=O)c2ccc(C(F)(F)F)cc2)CC1 | 10.5 | > 100 | 22.3 | > 100 |  |
| N#Cc1ccccc1N1CCN(C[C@H](O)COC[C@H](Cc2ccccc2)NC(=O)C2CCN(C(=O)OCc3ccccc3)CC2)CC1 | 14.5 | > 100 | 11.1 | > 100 |  |
| COc1cccc(/C=C/C(=O)NC[C@H](Cc2ccccc2)NS(=O)(=O)c2ccc(Br)cc2)c1 | > 100 | > 100 | > 100 | > 100 |  |
| N#Cc1ccccc1N1CCN(C[C@@H](O)COC[C@@H](Cc2ccccc2)NC(=O)C2CCN(C(=O)OCc3ccccc3)CC2)CC1 | > 100 | > 100 | > 100 | > 100 |  |
| N#Cc1ccccc1N1CCN(C[C@@H](O)COC[C@@H](Cc2ccccc2)NC(=O)c2ccncc2)CC1 | 29.8 | > 100 | 48.9 | > 100 |  |
| COc1ccc(/C=C/C(=O)NC[C@@H](Cc2ccccc2)NS(=O)(=O)c2ccc(C(F)(F)F)cc2)cc1OC | 12.3 | > 100 | 21.2 | > 100 |  |
